Measurements: patent publication US20240270695A1, “COMPOUNDS, COMPOSITIONS AND METHODS OF TREATING DISORDERS” (Chengdu Anticancer Bioscience LTD, priority 2021, published 2024)

Assays:
[1] = test system: RPE-Neo or RPE-MYC or RPE-MYC expressing an EGFP-Histone 2B fusion protein; test: MTT assays of cellular proliferation; assay type: cell-based; conditions: Homo sapiens, min. effective conc., read-out: Proliferative arrest (<50%)
[2] = test system: RPE-Neo or RPE-MYC or RPE-MYC expressing an EGFP-Histone 2B fusion protein; test: Phenotypic screening assay (arrest in mitosis, change in DNA content, cell death; GE IN-Cell Analyzer 2000); assay type: cell-based; conditions: Homo sapiens, compounds 20 nM to 20 μM, 24, 48 or 72 hours
[3] = read-out: Min. Effective conc. for Polyploidy (≥10%)
[4] = min. effective conc., read-out: Cell Death (>30%)
[5] = min. effective conc., read-out: Mitotic Arrest (≥10%)

Row | SMILES | minimal effective concentration [1] [µM] | minimal effective concentration [2, 3] [µM] | minimal effective concentration [2, 4] [µM] | minimal effective concentration [2, 5] [µM]
1 | COC(=O)C1=C(O)c2ccccc2N(Cc2cccc(F)c2)C(=O)C1 [Example 8, Methyl 1-(3-fluorobenzyl)-5-hydroxy-2-oxo-2,3-dihydro-1H-benzo[b]azepine-4-carboxylate] | 30 to 1000 |  |  | 
2 | COC(=O)C1=C(O)c2ccccc2N(Cc2cc(OC)cc(OC)c2)C(=O)C1 [Example 11, Methyl 1-(3,5-dimethoxybenzyl)-5-hydroxy-2-oxo-2,3-dihydro-1H-benzo[b]azepine-4-carboxylate] | 30 to 1000 |  |  | 
3 | COC(=O)C1=C(O)c2ccccc2N(Cc2ccc(C#N)cc2)C(=O)C1 [Example 26, Methyl 1-(4-cyanobenzyl)-5-hydroxy-2-oxo-2,3-dihydro-1H-benzo[b]azepine-4-carboxylate] | 30 to 1000 |  |  | 
4 | COC(=O)C1=C(O)c2ccccc2N(Cc2ccc(OC(F)(F)F)cc2)C(=O)C1 [Example 32, Methyl 5-hydroxy-2-oxo-1-(4-(trifluoromethoxy)benzyl)-2,3-dihydro-1H-benzo[b]azepine-4-carboxylate] | 30 to 1000 |  |  | 
5 | COC(=O)C1=C(O)c2ccccc2N(Cc2cccc3ccccc23)C(=O)C1 [Example 38, Methyl 5-hydroxy-1-(naphthalen-1-ylmethyl)-2-oxo-2,3-dihydro-1H-benzo[b]azepine-4-carboxylate] | 30 to 1000 | 30 to 1000 | 30 to 1000 | 30 to 1000
6 | COC(=O)Cc1ccc(CN2C(=O)CC(C(=O)OC)=C(O)c3ccccc32)cc1 [Example 42, Methyl 5-hydroxy-1-(4-(2-methoxy-2-oxoethyl)benzyl)-2-oxo-2,3-dihydro-1H-benzo[b]azepine-4-carboxylate] | 30 to 1000 |  |  | 
7 | Cc1ccc(CN2C(=O)CC(C(=O)NC3CCCCC3)=C(O)c3ccccc32)cc1F [Example 66, N-cyclohexyl-1-(3-fluoro-4-methylbenzyl)-5-hydroxy-2-oxo-2,3-dihydro-1H-benzo[b]azepine-4-carboxamide] |  | 10 to 30 | 10 to 30 | 10 to 30
8 | CNC(=S)C1=C(O)c2ccccc2N(Cc2ccc(C)c(F)c2)C(=O)C1 [Example 67, 1-(3-fluoro-4-methylbenzyl)-5-hydroxy-N-methyl-2-oxo-2,3-dihydro-1H-benzo[b]azepine-4-carbothioamide] |  | 10 to 30 | 10 to 30 | 10 to 30
9 | Cc1ccc(CN2C(=O)CC(C(=O)C(F)(F)F)=C(O)c3ccccc32)cc1F [Example 68, 1-(3-fluoro-4-methylbenzyl)-5-hydroxy-4-(2,2,2-trifluoroacetyl)-1,3-dihydro-2H-benzo[b]azepin-2-one] |  | 10 to 30 | 10 to 30 | 10 to 30
10 | CNC(=O)C1=C(O)c2ccccc2N(CC2CC2)C(=O)C1 [Example 70, 1-(cyclopropylmethyl)-5-hydroxy-N-methyl-2-oxo-2,3-dihydro-1H-benzo[b]azepine-4-carboxamide] | 30 to 1000 | 30 to 1000 | 30 to 1000 | 30 to 1000
11 | CNC(=O)C1=C(O)c2ccccc2N(Cc2ccsc2)C(=O)C1 [Example 71, 5-hydroxy-N-methyl-2-oxo-1-(thiophen-3-ylmethyl)-2,3-dihydro-1H-benzo[b]azepine-4-carboxamide] | 30 to 1000 | 30 to 1000 | 30 to 1000 | 30 to 1000
12 | CNC(=O)C1=C(O)c2ccccc2N(Cc2ccccc2)C(=O)C1 [Example 72, 1-benzyl-5-hydroxy-N-methyl-2-oxo-2,3-dihydro-1H-benzo[b]azepine-4-carboxamide] | 30 to 1000 | 30 to 1000 |  | 30 to 1000
13 | CNC(=O)C1=C(O)c2ccccc2N(Cc2ccncc2)C(=O)C1 [Example 74, 5-hydroxy-N-methyl-2-oxo-1-(pyridin-4-ylmethyl)-2,3-dihydro-1H-benzo[b]azepine-4-carboxamide] | 30 to 1000 | 30 to 1000 | 30 to 1000 | 30 to 1000
14 | CNC(=O)C1=C(O)c2ccccc2N(Cc2cccnc2)C(=O)C1 [Example 75, 5-hydroxy-N-methyl-2-oxo-1-(pyridin-3-ylmethyl)-2,3-dihydro-1H-benzo[b]azepine-4-carboxamide] | 30 to 1000 | 30 to 1000 | 30 to 1000 | 30 to 1000
15 | CNC(=O)C1=C(O)c2ccccc2N(Cc2ccc(F)cc2)C(=O)C1 [Example 76, 1-(4-fluorobenzyl)-5-hydroxy-N-methyl-2-oxo-2,3-dihydro-1H-benzo[b]azepine-4-carboxamide] | 1 to 10 | 1 to 10 | 1 to 10 | 1 to 10
16 | CNC(=O)C1=C(O)c2ccccc2N(Cc2cccc(F)c2)C(=O)C1 [Example 77, 1-(3-fluorobenzyl)-5-hydroxy-N-methyl-2-oxo-2,3-dihydro-1H-benzo[b]azepine-4-carboxamide] | 30 to 1000 | 30 to 1000 | 30 to 1000 | 30 to 1000
17 | CNC(=O)C1=C(O)c2ccccc2N(Cc2ccccc2F)C(=O)C1 [Example 78, 1-(2-fluorobenzyl)-5-hydroxy-N-methyl-2-oxo-2,3-dihydro-1H-benzo[b]azepine-4-carboxamide] | 10 to 30 | 10 to 30 | 10 to 30 | 10 to 30
18 | CNC(=O)C1=C(O)c2ccccc2N(Cc2ccc(C)cc2)C(=O)C1 [Example 79, 5-hydroxy-N-methyl-1-(4-methylbenzyl)-2-oxo-2,3-dihydro-1H-benzo[b]azepine-4-carboxamide] | 1 to 10 | 1 to 10 | 1 to 10 | 1 to 10
19 | CNC(=O)C1=C(O)c2ccccc2N(Cc2cccc(C)c2)C(=O)C1 [Example 80, 5-hydroxy-N-methyl-1-(3-methylbenzyl)-2-oxo-2,3-dihydro-1H-benzo[b]azepine-4-carboxamide] | 1 to 10 | 1 to 10 | 1 to 10 | 1 to 10
20 | CNC(=O)C1=C(O)c2ccccc2N(Cc2ccccc2C)C(=O)C1 [Example 81, 5-hydroxy-N-methyl-1-(2-methylbenzyl)-2-oxo-2,3-dihydro-1H-benzo[b]azepine-4-carboxamide] | 30 to 1000 | 30 to 1000 | 30 to 1000 | 30 to 1000
21 | CC(c1ccc(F)cc1)N1C(=O)CCC(=O)c2ccccc21 (stereo not drawn) [Example 82, 1-(1-(4-fluorophenyl)ethyl)-3,4-dihydro-1H-benzo[b]azepine-2,5-dione] | 30 to 1000 | 30 to 1000 | 30 to 1000 | 30 to 1000
22 | CNC(=O)C1=C(O)c2ccccc2N(Cc2ccc(Cl)cc2)C(=O)C1 [Example 83, 1-(4-chlorobenzyl)-5-hydroxy-N-methyl-2-oxo-2,3-dihydro-1H-benzo[b]azepine-4-carboxamide] | 10 to 30 | 10 to 30 | 10 to 30 | 10 to 30
23 | CNC(=O)C1=C(O)c2ccccc2N(Cc2ccc(C(F)(F)F)cc2)C(=O)C1 [Example 84, 5-hydroxy-N-methyl-2-oxo-1-(4-(trifluoromethyl)benzyl)-2,3-dihydro-1H-benzo[b]azepine-4-carboxamide] | 30 to 1000 | 30 to 1000 | 30 to 1000 | 10 to 30
24 | CNC(=O)C1=C(O)c2ccccc2N(Cc2ccc(C#N)cc2)C(=O)C1 [Example 85, 1-(4-cyanobenzyl)-5-hydroxy-N-methyl-2-oxo-2,3-dihydro-1H-benzo[b]azepine-4-carboxamide] | 30 to 1000 | 30 to 1000 | 30 to 1000 | 30 to 1000
25 | CCc1ccc(CN2C(=O)CC(C(=O)NC)=C(O)c3ccccc32)cc1 [Example 86, 1-(4-ethylbenzyl)-5-hydroxy-N-methyl-2-oxo-2,3-dihydro-1H-benzo[b]azepine-4-carboxamide] | 1 to 10 | 1 to 10 | 1 to 10 | 1 to 10
26 | CNC(=O)C1=C(O)c2ccccc2N(Cc2ccc(C(C)C)cc2)C(=O)C1 [Example 87, 5-hydroxy-1-(4-isopropylbenzyl)-N-methyl-2-oxo-2,3-dihydro-1H-benzo[b]azepine-4-carboxamide] | 30 to 1000 | 30 to 1000 | 30 to 1000 | 30 to 1000
27 | CCCCc1ccc(CN2C(=O)CC(C(=O)NC)=C(O)c3ccccc32)cc1 [Example 88] | 30 to 1000 | 30 to 1000 | 30 to 1000 | 30 to 1000
28 | CNC(=O)C1CC(=O)N(Cc2ccc(-c3ccccc3)cc2)c2ccccc2C1=O (stereo not drawn) [Example 89, 1-([1,1′-biphenyl]-4-ylmethyl)-5-hydroxy-N-methyl-2-oxo-2,3-dihydro-1H-benzo[b]azepine-4-carboxamide] | 30 to 1000 | 30 to 1000 | 30 to 1000 | 30 to 1000
